In patent US20210275514A1, “COMPOUNDS FOR USE IN TREATING KIDNEY DISORDERS” (Hoffmann-La Roche Inc., priority 2018, published 2021):
Entries after “also recorded” stand apart in the source; their conditions may differ.

How the values were obtained:
[1] = tested on: ABCA1; experiment: ApoA1-mediated cholesterol efflux in differentiated podocytes; assay type: cell-based, human; settings: 18 h
Method: Human podocytes differentiated for 13 days were labeled with 1 μCi/ml of [^3H]-cholesterol in RPMI media with 2% FBS for 24 h. Cells were then washed with PBS and incubated with equilibration media (RPMI-0.2% fat free-BSA) supplemented with vehicle or compounds Cpd C (1 μM), Cpd A (1 μM, 5 μM) and Cpd G (1 μM, 5 μM, 10 μM) for 18 h. Cells were then washed with PBS, and incubated with equilibration media with or without 20 μg/ml of human ApoA1 for 18 h at 37° C., 5% CO2. Media was collected, spun at 12,000×g for 5 min and the radioactivity of the 200 μl aliquot was counted by liquid scintillation. Cells were washed with PBS, lysed with 250 μl 0.1% SDS, 0.1 M NaOH and the radioactivity in 100 μl aliquot was measured by liquid scintillation. Cholesterol efflux was calculated as the % of labeled cholesterol that moved from the cell to the media by the formula:
Efflux (%)=100×{(cpm media)/[(cpm media)+(cpm lysate)]}
ApoA1-mediated cholesterol efflux was calculated as the difference between the efflux in the presence or absence of ApoA1. All treatments were done in duplicate. More than 3 independent experiments were performed.

[2] = tested on: ADR-induced nephropathy in Balb/c mice; experiment: Adriamycin-induced kidney damage, second experiment, 28 days; assay type: in vivo, mouse; settings: for TOTAL CHOL (blood) / TRIGLYCERIDES (blood): 28 days after ADR injection; for Albuminuria / Body weight loss: 4 weeks after ADR
Method: A second experiment was repeated to confirm the improvement of renal function attained with the doses of Cpd A and G in the first experiment. Briefly, 30 female Balb/c mice of 8 weeks age were injected with 12 mg/Kg of ADR by via tail vein and the mice were randomly distributed into 5 groups of 6 animals each. Animals were given vehicle or compounds by oral gavage once daily for 28 days starting one day after ADR injection. The following doses of compounds were tested: Cpd C, 10 mg/Kg/day; Cpd A, 30 mg/Kg/day and Cpd G, 30 mg/Kg/day and 100 mg/Kg/day. A group of 5 animals that received saline solution via tail vein injection and were treated with vehicle were used as healthy baseline control. Body weight measurements and spot urine collection was done once a week. Animals were sacrificed 28 days after ADR injection (FIG. 2).
Spot urine samples were collected for all mice at baseline and time of sacrifice. Urinary albumin and creatinine were determined using an albumin ELISA kit (Bethyl laboratories) and a colorimetric assay for creatinine determination (Stanbio). Albuminuria was calculated and expressed as μg of albumin divided by mg of creatinine. For diabetic mouse model, weight and glycaemia were measured on a bi-weekly basis.
At time of sacrifice blood was collected in heparinized tubes and mice were perfused via left ventricle perfusion with isotonic saline solution. Kidney cortex was carefully excised and further sectioned for the fallowing analysis: determination of podocyte number, lipid droplet staining, electron microscopy (EM), renal lipids content assays, PAS& HE staining for pathological evaluation.
Lipid droplet staining Filtered Oil-Red O-Isopropanol solution (Electron Microscopy Science, PA) was diluted with water (6:4). 4 μm kidney sections were incubated with 100 μl freshly prepared Oil-Red O solution (ORO) for 15 minutes and counterstained with Hematoxylin Harris Hg Free (VWR, PA) to detect lipid deposition. Glomeruli staining was evaluated using a light microscope (Olympus BX 41, Tokyo, Japan).
Renal lipids species assays. Kidney cortex sections were snap frozen and utilized for lipid extraction and cholesterol content determination. The tissue was homogenized in 2 mM potassium phosphate buffer in a glass douncer on ice. Lipids in 100 μl homogenate (˜5-10 mg tissue) were extracted with 1 ml hexane:isopropanol (3:2) for two sequential 30-minute extractions. The solvent containing lipids was then dried in Nitrogen atmosphere. Lipids were then reconstituted using isopropanol: NP-40 (9:1) and cholesterol content was quantified using the Amplex red cholesterol assay kit (Invitrogen) according to the manufacturers protocol. Triglycerides in lipid extracts were assayed with a colorimetric kit according to manufacturer's instructions (Cayman). Total cholesterol and cholesterol esters were assayed using an enzymatic fluorometric method. For total cholesterol renal lipid extracts were diluted in assay buffer (100 mM potassium phosphate, 50 mM NaCl, 5 mM cholic acid, 0.1% […], pH 7.4) and incubated with same buffer supplemented with a final concentration of 1 U/ml cholesterol oxidase, 1 U/ml cholesterol esterase, 1 U/ml horseradish peroxidase, and 75 μM Amplex Red. The reactions were incubated at 37° C. for 30 min in a black opaque 96 well plate (Greiner) and fluorescence was measured in a microplate reader (Spectramax i3X, Molecular Devices) using 530 nm excitation and 580 emission.
Cholesterol esters were assayed using a direct method described by Mizoguchi et al (Mizoguchi, 2004). Briefly 150 μl of FC decomposition reagent (45 U/ml bovine catalase and 1 U/ml cholesterol oxidase, in assay buffer described above) was added to 25 μl of sample containing up to 1 mM total cholesterol. Free cholesterol was allowed to decompose overnight at 37° C. and then 75 μl of 4× cholesterol ester detection reagent (1 U/ml cholesterol oxidase, 4 U/ml cholesterol esterase, 24 U/ml horseradish peroxidase, 300 μM Amplex Red) was added. […]

[3] = tested on: differentiated human podocytes; experiment: Compound cytotoxicity in differentiated human podocytes (ApoTox-Glo Triplex Assay); assay type: cell-based; settings: 18 h
Method: Podocytes were seeded in 96-well plates (Greiner) and allowed to differentiate for 14 days. Cells were then washed with PBS, and incubated with media (RPMI-0.2% BSA) with or without vehicle and compounds for 18 h at 37° C., 5% CO2. Compound concentrations tested were 1 μM, 5 μM, 10 μM and 20 μM. Vehicle (DMSO) final concentration was 0.1%. All treatments were done in duplicates. Cytotoxicity was assayed using ApoTox-Glo Triplex Assay (Promega) following manufacturer's instructions. Briefly, cell-permeant (GF-AFC) and cell impermeant (bis-AAF-R110) peptide substrates were diluted and added to all wells and the cells were incubated at 37° C., 5% CO2 for 1 hr. A set of cells were treated with saponin (2 mg/ml) as a positive control of cell cytotoxicity. Cell viability and cytotoxicity fluorescence signals were measured at 400 nm/505 nm and 485 nm/520 nm Excitation/Emission, respectively using a fluorescence microplate reader (SpectraMax i3). RFU signal obtained with the cell toxicity substrate was normalized to the one obtained with the viable substrate in the same well to eliminate the effect of different cell numbers per well.

[4] = concentrations above 10 uM, FIG. 3

O=C(N[C@@H]1CCCC[C@H]1O)c1cnc(OCC(F)(F)F)c(-c2ccc(Cl)c(Cl)c2)c1 [Cpd G, 5-(3,4-dichloro-phenyl)-N-((1R,2R)-2-hydroxy-cyclohexyl)-6-(2,2,2-trifluoro-ethoxy)-nicotinamide]
ApoA1-mediated cholesterol efflux ([1]; 10 μM): increase ApoA1-mediated cholesterol efflux; also recorded: Significant increase
TOTAL CHOL (blood) ([2]; 30 mg/Kg): 112.0 ± 13.6 mg/dL
TRIGLYCERIDES (blood) ([2]; 30 mg/Kg): 120 ± 18.8 mg/dL
Albuminuria ([2]; 100 mg/Kg once daily): significantly reduce; also recorded: reduced
Body weight loss ([2]; 100 mg/Kg once daily): significantly reduce; also recorded: reduced
deposition of lipid droplets in the kidneys (Oil Red O staining) ([2]; 100 mg/Kg, 28 days): significantly reduced
TOTAL CHOL (blood) ([2]; 100 mg/Kg): 101.1 ± 12.8 mg/dL
TRIGLYCERIDES (blood) ([2]; 100 mg/Kg): 121 ± 19.3 mg/dL
global glomerular sclerosis (blind pathological study of kidney cortex) ([2]; 100 mg/Kg/day, 4 weeks): reduction
interstitial inflammation ([2]; 100 mg/Kg/day, 4 weeks): reduction
podocyte hyperplasia ([2]; 100 mg/Kg/day, 4 weeks): reduction
podocyte hypertrophy ([2]; 100 mg/Kg/day, 4 weeks): reduction
segmental glomerular sclerosis ([2]; 100 mg/Kg/day, 4 weeks): reduction
tubular microcysts ([2]; 100 mg/Kg/day, 4 weeks): reduction
esterified cholesterol content in kidney cortex ([2]; 28 days, normalized to total protein): reduces accumulation of esterified cholesterol; also recorded: significantly reduced
physical appearance ([2]; optimal dose (100 mg/Kg), 3rd and 4th week of treatment): better physical appearance

O=C(N[C@@H]1CCCC[C@H]1O)c1ccc(OCC(F)(F)F)c(-c2ccc(Cl)c(Cl)c2)n1 [Cpd A, 6-(3,4-Dichlorophenyl)-N-[(1R,2R)-2-hydroxycyclohexyl]-5-(2,2,2-trifluoroethoxy)pyridine-2-carboxamide]
Cytotoxicity ([3]; 20 μM): significant toxicity
Cytotoxicity [3, 4]: significant toxicity
ApoA1-mediated cholesterol efflux ([1]; 5 μM): increase ApoA1-mediated cholesterol efflux; also recorded: Significant increase
Albuminuria ([2]; 30 mg/Kg once daily): significantly reduce; also recorded: reduced
Body weight loss ([2]; 30 mg/Kg once daily): significantly reduce; also recorded: reduced
TOTAL CHOL (blood) ([2]; 30 mg/Kg): 104.0 ± 31.6 mg/dL
TRIGLYCERIDES (blood) ([2]; 30 mg/Kg): 107 ± 23.9 mg/dL

Cc1oc(-c2cccc(C(F)(F)F)c2)nc1Cn1c(C)cc2cc(C(O)(C(F)(F)F)C(F)(F)F)ccc21 [Cpd C, 1,1,1,3,3,3-Hexafluoro-2-{2-methyl-1-[5-methyl-2-(3-trifluoromethyl-phenyl)-oxazol-4-ylmethyl]-1H-indol-5-yl}-propan-2-ol, reference compound]
Cytotoxicity ([3]; 20 μM): significant toxicity
Cytotoxicity [3, 4]: significant toxicity
ApoA1-mediated cholesterol efflux ([1]; 1 μM): increase ApoA1-mediated cholesterol efflux; also recorded: Significant increase
TOTAL CHOL (blood) ([2]; 10 mg/Kg): 119.8 ± 19.9 mg/dL
TRIGLYCERIDES (blood) ([2]; 10 mg/Kg): 110 ± 53.5 mg/dL
